Data reported in US7482008B1, “Human T cell reactive feline protein (TRFP) isolated from house dust and uses therefor” (Merck Patent GmbH, priority 1989, dated 2009).

System: B6CBAF1 mice
Assay: Tolerization s.c. then challenge with recombinant chain 1 of TRFP, chain 1 specific IL-2 production
Assay type: in vivo, mouse
Settings: 150 μg/dose s.c. days 0 and 5; challenge 100 μg recombinant chain 1 in CFA
Description: The mice were injected with 150 μg/dose of either the TRFP chain 1 or each of the peptides (days 0 and 5). The PBS alone and the PBS/peptides were injected in 300 μl/dose. The PBS/chain 1 of the TRFP protein was injected in 100 μl/dose. All tolerizing doses were at a single site under the dorsal skin between the forelimbs. On day 10 all of the animals received a challenge injection of 100 μg recombinant chain 1 of TRFP in 200 μl CFA as described above. On day 20 the animals were sacrificed and draining lymph nodes were removed as described above. The lymph node cells were suspended, rinsed, and cultured as above with or without 150 μg/ml recombinant chain 1 of TRFP. The lymph node cell cultures in this experiment were each 0.1 ml. The supernatants from the cultures were assayed for IL-2 as described above.

For “recombinant chain 1: recombinant TRFP chain 1 expressed in E. coli”, the “IL-2 production specific for chain 1 of TRFP” value was “effective in decreasing IL-2 production”.
